Laboratory results published in patent US7011972B2, “Fusion polypeptide comprising two ligand binding domains” (The Scripps Research Institute, priority 2000, dated 2006).
“Also recorded” adds a separate entry of the source.

Columns and labels:
[1] = molecular target: ER-VP64 (mouse) (UniProt P19785); experiment: cell-based or functional assay
[2] = test system: E2C-TATA-luciferase reporter plasmid carrying a single E2C binding site; experiment: Luciferase reporter assay, E2C-TATA-luc in HeLa cells; assay type: cell-based; conditions: 4-OHT
Description: A, structure of ER fusion proteins. E2C, six finger protein; L, flexible peptide linker. B, fusion proteins with a single ER-LBD bind as dimers. HeLa cells were cotransfected with a C7-ER-VP64 expression vector, and the indicated TATA luciferase reporter plasmids carrying either one or two C7 binding sites. 24 h after transfection, cells were either left untreated (−), or 100 nM 4-OHT was added (+). Luciferase activity in total cell extracts was measured 48 h after transfection. Each bar represents the mean value (+/−SD) of duplicate measurements. […] C, D, regulation of transcription through a single binding site by fusion proteins with two ER-LBDs. HeLa cells were cotransfected with the indicated expression vectors and the E2C-TATA-luciferase reporter plasmid, carrying a single E2C binding site upstream of a TATA box. 4-OHT induction and measurement of luciferase activity was carried out as described in B.
A, structure of single-chain RXR/EcR fusion proteins. B, regulation of transcription through a single binding site. HeLa cells were cotransfected with the indicated expression vectors and the E2C-TATA-luciferase reporter plasmid, carrying a single E2C binding site. 24 h after transfection, cells were either left untreated (−), or 5 μM Ponasterone A was added (+). Luciferase activity in total cell extracts was measured 48 h after transfection.
(§1) Luciferase and βP-gal reporter assays.
To overcome these problems, we produced two types of ER-based chimeric regulators, designed to be capable of regulating gene expression through a single binding site in a hormone-dependent manner. In the first strategy, a heterodimeric regulator was generated consisting of the engineered zinc finger protein E2C fused to an ER LBD, as well as an ER LBD fused to a VP64 activation domain (FIG. 2A). […] Addition of hormone led to a 3- to 5-fold stimulation of luciferase expression, indicating the formation of functional heterodimers. […]

[3] = test system: 10×B3-TATA-luc reporter (with B3-PR-VP16 and N1-ER-VP64) in HeLa cells; experiment: Dual reporter assay, luciferase; assay type: cell-based; conditions: HeLa cells expressing B3-PR-VP16 and N1-ER-VP64
Source text: (§2) RU486- and Tamoxifen-inducible promoter constructs. 10×C7-TATA, 10×B3-TATA, and 10×N1-TATA fragments were assembled from two pairs of complementary oligonucleotides each and cloned into Sac1-Xma1 linearized pGL3-Basic (Promega), upstream of the firefly luciferase coding region, creating the plasmids 10×C7-TATA-luc, 10×B3-TATA-luc, and 10×N1-TATA-luc. To generate the 10×N1-TATA-lacZ reporter construct, the lacZ coding region was excised from pβgal-Basic (Clontech) and used to replace the luciferase coding region of 10×N1-TATA-luc via Hind3-BamH1 digestion. Luciferase and βP-gal reporter assays. […] Concomitant regulation of multiple promoters. Zinc finger technology has made a large repertoire of DNA binding specificities available for use in protein engineering [[…]., and Barbas, C. F., III (1998) Proc. Natl. Acad. Sci. USA 95, 14628-14633; […]., and Barbas, C. F., III (1999) Proc. Natl. Acad. Sci. USA 96, 2758-2763; […]., and Barbas, C. F., III (2000) Proc. Natl. Acad. Sci. USA 97, 1495-1500]. The availability of different steroid hormone receptor-derived regulatory domains [Littlewood, T. D., Hancock, […]., Parker, M. G., and Evan, G. I. (1995) Nucl. […] The transfected cells were treated with either RU486 or 4-OHT and the luciferase and β-gal activities were monitored.

[4] = test system: 10×N1-TATA-β-gal reporter (with B3-PR-VP16 and N1-ER-VP64) in HeLa cells; experiment: Dual reporter assay, β-gal; assay type: cell-based; conditions: HeLa cells expressing B3-PR-VP16 and N1-ER-VP64
Source text: as §2

[5] = molecular target: T1, hPR (aa645-914) LBD (Homo sapiens, UniProt P06401); experiment: Ligand crossreactivity on PR fusion, 10×C7-TATA-luc reporter; assay type: cell-based; conditions: PR LBD fusion proteins
T1 construct: The human PR truncated LBD (aa645-914) was amplified from PAPCMVGL914VPc′-SV; expressed in transfected cells; host or cells: HeLa cells, effector plasmid in pcDNA3.1(+)Zeo
T1 sequence (P06401 645-914): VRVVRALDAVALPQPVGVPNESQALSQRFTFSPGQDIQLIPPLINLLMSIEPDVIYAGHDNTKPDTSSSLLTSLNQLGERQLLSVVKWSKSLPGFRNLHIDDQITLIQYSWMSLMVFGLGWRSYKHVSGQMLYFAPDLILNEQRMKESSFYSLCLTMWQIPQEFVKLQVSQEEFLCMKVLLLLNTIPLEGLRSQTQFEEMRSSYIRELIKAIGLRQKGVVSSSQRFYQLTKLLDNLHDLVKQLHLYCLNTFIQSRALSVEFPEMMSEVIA
Description: as §1
The chimeric transcriptional regulators were then tested for their ability to regulate the 10×C7-TATA-luc reporter plasmid in a hormone dependent manner. 10×C7-TATA-luc contains ten C7 binding sites [5′-GCG TGG GCG-3′] spaced by 5 nucleotides, and a TATA box, upstream of the firefly luciferase coding region. […] RU486 stimulated the activity of VP16-C7-PR 26-fold, while 4-OHT led to a 43-fold activation of VP16-C7-ER. […] The presence of a NLS in either position was not only not required, but even undesirable, since it led to an increased basal (i.e. hormone-independent) activity of the fusion constructs, presumably through increased nuclear localization. Thus, the hPR (aa645-914) and mER (aa281-599, G525R) LBDs are able to confer hormone-dependence onto the zinc finger protein C7.

Molecule | hormone-dependent activation of E2C-TATA-luc reporter [2] | β-gal reporter gene activity (10×N1-TATA-β-gal) [4] | also measured
E2C-ER (from UniProt P19785 281-599) | – | – | luciferase expression from the E2C-TATA-luc reporter (single E2C site) in HeLa cells, stimulation by 4-OHT [1]: 3 to 5 fold
E2C-scER/30-VP64: single-chain fusion of E2C, two ER LBDs joined by 30 amino acid linker, VP64 | efficiently activated | – | –
E2C-scER/18-VP64: single-chain fusion of E2C, two ER LBDs joined by 18 amino acid linker, VP64 | efficiently activated | – | –
4-hydroxytamoxifen [4-OHT] | – | efficiently activated | luciferase expression (10×B3-TATA-luc) [3]: did not affect; crossreactivity between 4-OHT and PR [5]: no detectable crossreactivity; also recorded: no detectable crossreaction
CC#C[C@]1(O)CC[C@H]2[C@@H]3CCC4=CC(=O)CCC4=C3[C@@H](c3ccc(N(C)C)cc3)C[C@@]21C [RU486, 11β-(4-dimethylaminophenyl)-17β-hydroxy-17α-propinyl-4,9-e stradiene-3-one] | – | no effect | –
ER-VP64: ER LBD fused to a VP64 activation domain (protein, left off: large carriers) RNEMGASGDMRAANLWPSPLVIKHTKKNSPALSLTADQMVSALLDAEPPMIYSEYDPSRPFSEASMMGLLTNLADRELVHMINWAKRVPGFGDLNLHDQVHLLECAWLEILMIGLVWRSMEHPGKLLFAPNLLLDRNQGKCVEGMVEIFDMLLATSSRFRMMNLQGEEFVCLKSIILLNSGVYTFLSSTLKSLEEKDHIHRVLDKITDTLIHLMAKAGLTLQQQHRRLAQLLLILSHIRHMSNKRMEHLYNMKCKNVVPLYDLLLEMLDAHRLHAPASRMGVPPEEPSQTQLATTSSTSAHSLQTYYIPPEAEGFPNTI | inactive | – | –
